Structures are written as SMILES. Activity calls are given as the source filed them. The calls are words filed in the database; no cut-off is given here.

The subject of assay [1] is Pseudomonas aeruginosa. The assay is described as follows: Synergistic antibacterial activity against Pseudomonas aeruginosa ATCC 27853 assessed as fractional inhibitory concentration index incubated for 18 hrs in presence of imipenem by two-dimensional microdilution checkerboard assay. The assay is classed as functional. On the technique in general: Dilution methods test growth across graded concentrations, often in twofold steps.

Assay [2] relates to Escherichia coli. Nature of the assay: Inhibition of recombinant N-terminal His-tagged Escherichia coli BL21 NagZ extracted from Escherichia coli BL21 using pNP-GlcNAc as substrate at 100 uM by absorbance based assay relative to control.
In assay [3] the test system is Pseudomonas aeruginosa. The assay is described as follows: Synergistic antibacterial activity against Pseudomonas aeruginosa ATCC 27853 infected in female KM mouse assessed as increase in wound contraction in skin at 200 ug/ml applied topically measured after 3 days in presence of ceftazidime. The settings on record: dose 200.0 µg/ml, route top, time 3.0 day. The assay is classed as functional, organism-based.

The test system of assay [4] is Pseudomonas aeruginosa. The assay is described as follows: Synergistic antibacterial activity against Pseudomonas aeruginosa ATCC 27853 assessed as fractional inhibitory concentration index incubated for 18 hrs in presence of ceftazidime by two-dimensional microdilution checkerboard assay. The assay is classed as functional.
For assay [5], the system named is Pseudomonas aeruginosa. The assay is described as follows: Synergistic antibacterial activity against Pseudomonas aeruginosa ATCC 27853 infected in female KM mouse assessed as exudate formation on wound surface at 200 ug/ml applied topically in presence of imipenem measured after 3 days. The assay is classed as functional, organism-based. To be noted: dose 200.0 µg/ml, route top, time 3.0 day.

Assay [6] concerns Pseudomonas aeruginosa. Nature of the assay: Synergistic antibacterial activity against Pseudomonas aeruginosa ATCC 27853 infected in female KM mouse assessed as wound healing rate in skin at 200 ug/ml applied topically measured after 10 days in presence of imipenem relative to control. To be noted: dose 200 µg/ml; route top; time 10 day. The assay is classed as functional.
The nature of assay [7]: Inhibition of recombinant N-terminal His-tagged Escherichia coli BL21 NagZ extracted from Escherichia coli BL21 using pNP-GlcNAc as substrate by absorbance based assay.
Assay [8] deals with Escherichia coli. Nature of the assay: Binding affinity to CM5 chip-immobilized recombinant N-terminal His-tagged Escherichia coli BL21 NagZ extracted from Escherichia coli BL21 assessed as relative response by SPR analysis. (SPR reads the build-up and loss of mass on a sensor chip optically.)
The test system of assay [9] is Pseudomonas aeruginosa. The assay is described as follows: Synergistic antibacterial activity against Pseudomonas aeruginosa ATCC 27853 assessed as fold reduction in ceftazidime MIC incubated for 18 hrs by two-dimensional microdilution checkerboard assay. The assay is classed as functional.
The subject of assay [10] is Pseudomonas aeruginosa. The assay is described as follows: Synergistic antibacterial activity against Pseudomonas aeruginosa ATCC 27853 infected in female KM mouse assessed as wound healing rate in skin at 200 ug/ml applied topically measured after 3 days in presence of imipenem (reference value: 36.2 %). The assay is classed as functional. The settings on record: dose 200 µg/ml; route top; time 3 day.

Assay [11] has as its system Pseudomonas aeruginosa. The assay is described as follows: Synergistic antibacterial activity against Pseudomonas aeruginosa ATCC 27853 infected in female KM mouse assessed as wound healing rate in skin at 200 ug/ml applied topically measured after 10 days in presence of ceftazidime relative to control. The assay is classed as functional. To be noted: dose 200 µg/ml; route top; time 10 day.

Assay [12] concerns Pseudomonas aeruginosa. Nature of the assay: Synergistic antibacterial activity against Pseudomonas aeruginosa ATCC 27853 infected in female KM mouse assessed as wound healing rate in skin at 200 ug/ml applied topically measured after 3 days in presence of ceftazidime (reference value: 36.2 %). The assay is classed as functional. To be noted: dose 200 µg/ml; route top; time 3 day.

Assay [13] in a line: Binding affinity to CM5 chip-immobilized recombinant N-terminal His-tagged Escherichia coli BL21 NagZ extracted from Escherichia coli BL21 assessed as equilibrium dissociation constant by SPR analysis.
Assay [14] has as its system Pseudomonas aeruginosa. Nature of the assay: Synergistic antibacterial activity against Pseudomonas aeruginosa ATCC 27853 assessed as fold reduction in imipenem MIC incubated for 18 hrs by two-dimensional microdilution checkerboard assay. The assay is classed as functional.
Assay [15] can be described thus: Inhibition of recombinant N-terminal His-tagged Escherichia coli BL21 NagZ extracted from Escherichia coli BL21 using different concentrations of substrate pNP-GlcNAc by 4-nitrophenolate ion release based spectrophotometric analysis.
Assay [16] has as its system Pseudomonas aeruginosa. Nature of the assay: Synergistic antibacterial activity against Pseudomonas aeruginosa ATCC 27853 infected in female KM mouse assessed as epithelial tissue proliferation in skin at 200 ug/ml applied topically in presence of imipenem measured after 3 days. The assay is classed as functional, organism-based. The settings on record: dose 200.0 µg/ml, route top, time 3.0 day.

Assay [17] deals with Pseudomonas aeruginosa. Nature of the assay: Antibacterial activity against Pseudomonas aeruginosa ATCC 27853 infected in female KM mouse assessed as epithelial tissue proliferation in skin at 20 mg/kg, iv measured after 3 days. The assay is classed as functional, organism-based. To be noted: time 3.0 day.
Assay [18] concerns Pseudomonas aeruginosa. Nature of the assay: Antibacterial activity against Pseudomonas aeruginosa ATCC 27853 infected in female KM mouse assessed as wound healing rate in skin at 20 mg/kg, iv measured after 3 days (reference value: 36.2 %). The assay is classed as functional. To be noted: time 3 day.
For assay [19], the system named is Pseudomonas aeruginosa. Nature of the assay: Antibacterial activity against Pseudomonas aeruginosa ATCC 27853 infected in female KM mouse assessed as increase in wound contraction in skin at 40 mg/kg, iv measured after 3 days. The assay is classed as functional, organism-based. The settings on record: time 3.0 day.
The test system of assay [20] is Pseudomonas aeruginosa. Nature of the assay: Antibacterial activity against Pseudomonas aeruginosa ATCC 27853 infected in female KM mouse assessed as epithelial tissue proliferation in skin at 40 mg/kg, iv measured after 3 days. The assay is classed as functional, organism-based. To be noted: time 3.0 day.
The test system of assay [21] is Pseudomonas aeruginosa. The assay is described as follows: Antibacterial activity against Pseudomonas aeruginosa ATCC 27853 infected in female KM mouse assessed as wound healing rate in skin at 40 mg/kg, iv measured after 3 days (reference value: 36.2 %). The assay is classed as functional. The settings on record: time 3 day.

As a reminder, the inhibition is the drop in the measured response relative to a control, in per cent. As a reminder, the IC50 is the concentration that gives 50% inhibition. The Kd is the equilibrium constant for the complex coming apart. As a reminder, the Ki is the dissociation constant of the complex between target and ligand, obtained from inhibition or displacement. As to `O=C(/C=C/c1ccc(Cl)c(Cl)c1)N[C@@H](Cc1ccc(I)cc1)C(=O)O`, the “fractional inhibitory concentration index (FICI)” value in the assay with Pseudomonas aeruginosa [1] and with Pseudomonas aeruginosa [4] was 0.375 in each case. Besides, the inhibition in the assay on Escherichia coli [2] turned out to be 88%. In addition, the Activity entry was “Active; Activity Higher Than Imipenem And Compound-Ceftazidime Combination” in the assay with Pseudomonas aeruginosa [3]; 93.9% in the assay with Pseudomonas aeruginosa [6]; 69.4% in the assay on Pseudomonas aeruginosa [10]; 95.7% with Pseudomonas aeruginosa [11]; 73.2% in the assay with Pseudomonas aeruginosa [12]. Further, the outcome in the assay with Pseudomonas aeruginosa [5] and with Pseudomonas aeruginosa [16] was Active. Besides, in assay [7], the IC50 was 6.4 µM. The RU with Escherichia coli [8] is under 68. Besides, the “fold change (FC)” value in the assay on Pseudomonas aeruginosa [9] and in the assay with Pseudomonas aeruginosa [14] was over 4 throughout. Moreover, the Kd in assay [13] was found to be 42.8 µM. In addition, the Ki in assay [15] is 3.3 µM.

Take `O=C(/C=C/c1ccc(Cl)c(Cl)c1)NC(Cc1ccc(Br)cc1)C(=O)O` (racemic): in the assay on Escherichia coli [2], the inhibition was determined as 86.1%. Moreover, the IC50 in [7] turned out to be 36.5 µM. In addition, the Ki in assay [15] worked out at 22.4 µM.

On to `C[C@@H](O)[C@H]1C(=O)N2C(C(=O)O)=C(SCCNC=N)C[C@H]12` [IMIPENEM ANHYDROUS], for which the outcome with Pseudomonas aeruginosa [17] was Active. The Activity with Pseudomonas aeruginosa [18] was 54.4%.

Consider `O=C(/C=C/c1ccc(Br)cc1)N[C@@H](Cc1ccc(I)cc1)C(=O)O`, for which the inhibition in the assay with Escherichia coli [2] turned out to be 81.2%. The IC50 in assay [7] was 119 µM. Besides, the Ki in assay [15] is 24.2 µM.

With `O=C(/C=C/c1ccc(Cl)cc1)N[C@@H](Cc1ccc(I)cc1)C(=O)O`, the inhibition in the assay with Escherichia coli [2] amounted to 75.7%. For the same compound, the IC50 in assay [7] amounted to 182 µM. For the same compound, the Ki in assay [15] was found to be 56.1 µM.

`O=C(/C=C/c1c[nH]c2ccccc12)N[C@@H](Cc1ccc(I)cc1)C(=O)O`: the inhibition in the assay with Escherichia coli [2] amounted to 78.8%. Besides, in assay [7], the IC50 is 39.6 µM. Also, the Ki in assay [15] stood at 15.5 µM.

As to `CC(C)(O/N=C(\C(=O)N[C@@H]1C(=O)N2C(C(=O)[O-])=C(C[n+]3ccccc3)CS[C@H]12)c1csc(N)n1)C(=O)O` [CEFTAZIDIME], the Activity entry in the assay with Pseudomonas aeruginosa [19] is recorded as “Active; Activity Higher Than Imipenem”; in the assay with Pseudomonas aeruginosa [21] it was 62.2%. Besides, the result in the assay on Pseudomonas aeruginosa [20] was Active.

The values are drawn from ChEMBL document CHEMBL6182902, “Design, synthesis, and discovery of cinnamoyl amide derivatives as potent NagZ inhibitors with antibacterial activity” (Eur J Med Chem, 2025).
